Assay results as given in PubChem BioAssay AID248 (DTP/NCI, 2004).
“And” between values parts separate entries of the source, which are not always exact repeats. Equal values may be shown once. Inconclusive results and toxic doses are left out.

Tested on: L1210 leukemia ip in BDF1 mice, survival T/C
Experiment: NCI In Vivo Anticancer Drug Screen. Data for tumor model L1210 Leukemia (intraperitoneal) in B6D2F1 (BDF1) mice
Settings: endpoint: mean survival time, higher = longer survival
How it was run: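 Mice bearing the transplanted tumor received compound or vehicle. Survival of the treated group was divided by that of the vehicle-treated control group to give the ratio.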

[1] = dose: 100.0 mg/kg/injection, schedule: Q01DX009 (ip), vehicle: saline with Tween-80
[2] = dose: 200.0 mg/kg/injection, schedule: Q01DX009 (ip), vehicle: saline with Tween-80
[3] = dose: 100.0 mg/kg/injection, schedule: Q04DX003 (ip), vehicle: saline with Tween-80
[4] = dose: 200.0 mg/kg/injection, schedule: Q04DX003 (ip), vehicle: saline with Tween-80
[5] = dose: 400.0 mg/kg/injection, schedule: Q04DX003 (ip), vehicle: saline with Tween-80
[6] = dose: 200.0 mg/kg/injection, schedule: Q04DX002 (ip), vehicle: saline with Tween-80
[7] = dose: 400.0 mg/kg/injection, schedule: Q04DX002 (ip), vehicle: saline with Tween-80
[8] = dose: 100.0 mg/kg/injection, schedule: Q01DX009 (ip), vehicle: Klucel (hydroxypropylcellulose) (HPC)
[9] = dose: 200.0 mg/kg/injection, schedule: Q01DX009 (ip), vehicle: Klucel (hydroxypropylcellulose) (HPC)
[10] = dose: 400.0 mg/kg/injection, schedule: Q01DX009 (ip), vehicle: Klucel (hydroxypropylcellulose) (HPC)
[11] = dose: 100.0 mg/kg/injection, schedule: Q04DX002 (ip), vehicle: saline with Tween-80
[12] = dose: 100.0 mg/kg/injection, schedule: Q04DX003 (ip), vehicle: Klucel (hydroxypropylcellulose) (HPC)
[13] = dose: 200.0 mg/kg/injection, schedule: Q04DX003 (ip), vehicle: Klucel (hydroxypropylcellulose) (HPC)
[14] = dose: 400.0 mg/kg/injection, schedule: Q04DX003 (ip), vehicle: Klucel (hydroxypropylcellulose) (HPC)

For O=C(Nc1ccc(NC(=O)c2ccc(C3=NCCCN3)cc2)cc1)c1ccc(C2=NCCCN2)cc1, the T/C (dose: 0.93 mg/kg/injection, schedule: Q01DX Z (ip), vehicle: carboxymethylcellulose (CMC)) was 106 % of control, the T/C (dose: 1.87 mg/kg/injection, schedule: Q01DX Z (ip), vehicle: carboxymethylcellulose (CMC)) was 100 % of control and the T/C (dose: 3.75 mg/kg/injection, schedule: Q01DX Z (ip), vehicle: carboxymethylcellulose (CMC)) was 108 % of control and 118 % of control. For the same compound, the T/C (dose: 7.5 mg/kg/injection, schedule: Q01DX Z (ip), vehicle: carboxymethylcellulose (CMC)) was 166 % of control and 191 % of control, the T/C (dose: 15.0 mg/kg/injection, schedule: Q01DX Z (ip), vehicle: carboxymethylcellulose (CMC)) was 200 % of control and 204 % of control and the T/C (dose: 30.0 mg/kg/injection, schedule: Q01DX Z (ip), vehicle: carboxymethylcellulose (CMC)) was 101 % of control. For the same compound, the T/C (dose: 37.5 mg/kg/injection, schedule: Q01DX Z (oral), vehicle: carboxymethylcellulose (CMC)) was 101 % of control, the T/C (dose: 75.0 mg/kg/injection, schedule: Q01DX Z (oral), vehicle: carboxymethylcellulose (CMC)) was 110 % of control and the T/C (dose: 150.0 mg/kg/injection, schedule: Q01DX Z (oral), vehicle: carboxymethylcellulose (CMC)) was 101 % of control. The T/C (dose: 300.0 mg/kg/injection, schedule: Q01DX Z (oral), vehicle: carboxymethylcellulose (CMC)) was 106 % of control.

For Cc1c(NC(=O)Nc2ccccc2C(F)(F)F)c(=O)n(-c2ccccc2)n1C, the T/C [1] was 104 % of control, the T/C [2] was 98 % of control and the T/C (dose: 400.0 mg/kg/injection, schedule: Q01DX009 (ip), vehicle: saline with Tween-80) was 91 % of control.

c1ccc(CNc2nccs2)cc1 was tested, and the T/C (dose: 75.0 mg/kg/injection, schedule: Q01DX001 (ip), vehicle: carboxymethylcellulose (CMC)) was 96 % of control, the T/C (dose: 150.0 mg/kg/injection, schedule: Q01DX001 (ip), vehicle: carboxymethylcellulose (CMC)) was 91 % of control and the T/C (dose: 300.0 mg/kg/injection, schedule: Q01DX001 (ip), vehicle: carboxymethylcellulose (CMC)) was 95 % of control.

In the case of Cc1ccc(C(=O)CCCCCCCCC(=O)c2ccc(C)cc2)cc1, the T/C (dose: 50.0 mg/kg/injection, schedule: Q01DX009 (ip), vehicle: saline with Tween-80) is reported as 97 % of control, the T/C [1] is reported as 89 % of control and the T/C [2] is reported as 89 % of control.

For CC1(C)NC(=O)N(C(C)(C)C(=O)O)C1=O, the T/C (dose: 100.0 mg/kg/injection, schedule: Q01DX001 (ip), vehicle: carboxymethylcellulose (CMC)) was 90 % of control, the T/C (dose: 200.0 mg/kg/injection, schedule: Q01DX001 (ip), vehicle: carboxymethylcellulose (CMC)) was 95 % of control and the T/C (dose: 400.0 mg/kg/injection, schedule: Q01DX001 (ip), vehicle: carboxymethylcellulose (CMC)) was 87 % of control.

With CSCCC(NC(=O)CNC(=O)OCc1ccccc1)C(=O)O (stereo not given) the T/C [3] was 106 % of control, the T/C [4] was 95 % of control and the T/C [5] was 107 % of control.

COc1cc(Cc2nccc3cc(OC)c(OC)cc23)c([N+](=O)[O-])cc1OC was tested, and the T/C (dose: 100.0 mg/kg/injection, schedule: Q01DX001 (ip), vehicle: saline) was 102 % of control, the T/C (dose: 100.0 mg/kg/injection, schedule: Q04DX003 (ip), vehicle: saline sonified) was 106 % of control and the T/C (dose: 200.0 mg/kg/injection, schedule: Q01DX001 (ip), vehicle: saline) was 96 % of control. The T/C (dose: 200.0 mg/kg/injection, schedule: Q04DX003 (ip), vehicle: saline sonified) was 89 % of control, the T/C (dose: 300.0 mg/kg/injection, schedule: Q01DX001 (ip), vehicle: saline) was 96 % of control and the T/C (dose: 400.0 mg/kg/injection, schedule: Q04DX003 (ip), vehicle: saline sonified) was 92 % of control.

O=c1[nH]c(-c2ccccc2N=NN2CCCCC2)nc2ccccc12 was tested, and the T/C (dose: 25.0 mg/kg/injection, schedule: Q04DX002 (ip), vehicle: saline with Tween-80) was 100 % of control, the T/C (dose: 50.0 mg/kg/injection, schedule: Q04DX002 (ip), vehicle: saline with Tween-80) was 103 % of control and the T/C [6] was 103 % of control. For the same compound, the T/C [7] was 88 % of control.

For Clc1ccc(N=Cc2ccc3c(c2)OCO3)c(Cl)c1, the T/C [8] was 94 % of control, the T/C [9] was 93 % of control and the T/C [10] was 96 % of control.

With COC(=O)/C(=C1\C=C(c2ccccc2)C(=O)O1)c1ccccc1 the T/C (dose: 25.0 mg/kg/injection, schedule: Q01DX009 (ip), vehicle: Klucel (hydroxypropylcellulose) (HPC)) was 98 % of control and the T/C (dose: 50.0 mg/kg/injection, schedule: Q01DX009 (ip), vehicle: Klucel (hydroxypropylcellulose) (HPC)) was 103 % of control.

In the case of CC(C)(C)c1cc(O)cc(C(C)(C)C)c1, the T/C [11] is reported as 100 % of control, the T/C [6] is reported as 97 % of control and the T/C [7] is reported as 100 % of control.

For CCCNC(c1ccccc1)=[N+]1C(C)CCCC1C (stereo not given), the T/C (dose: 12.5 mg/kg/injection, schedule: Q04DX002 (ip), vehicle: saline) was 101 % of control and the T/C (dose: 25.0 mg/kg/injection, schedule: Q04DX002 (ip), vehicle: saline) was 109 % of control.

COc1ccc(CO)cc1OC was tested, and the T/C [8] was 101 % of control, the T/C [12] was 97 % of control and the T/C [9] was 113 % of control. The T/C [13] was 94 % of control, the T/C [10] was 97 % of control and the T/C [14] was 94 % of control.

O=C(O)c1cccc(C2CC2)c1 was tested, and the T/C (dose: 100.0 mg/kg/injection, schedule: Q01DX001 (ip), vehicle: other) was 95 % of control, the T/C (dose: 100.0 mg/kg/injection, schedule: Q04DX003 (ip), vehicle: other) was 97 % of control and the T/C (dose: 200.0 mg/kg/injection, schedule: Q01DX001 (ip), vehicle: other) was 97 % of control. The T/C (dose: 200.0 mg/kg/injection, schedule: Q04DX003 (ip), vehicle: other) was 97 % of control, the T/C (dose: 400.0 mg/kg/injection, schedule: Q01DX001 (ip), vehicle: other) was 98 % of control and the T/C (dose: 400.0 mg/kg/injection, schedule: Q04DX003 (ip), vehicle: other) was 97 % of control.

For CC12CCCCC1C(C(=O)O)CC2 (stereo not given), the T/C [11] was 105 % of control, the T/C [6] was 105 % of control and the T/C [7] was 92 % of control.

In the case of CN(N=O)C(=O)NCCSc1ncnc2nc[nH]c12, the T/C (dose: 6.25 mg/kg/injection, schedule: Q01DX Z (ip), vehicle: carboxymethylcellulose (CMC)) is reported as 103 % of control, the T/C (dose: 12.5 mg/kg/injection, schedule: Q01DX Z (ip), vehicle: carboxymethylcellulose (CMC)) is reported as 95 % of control and the T/C (dose: 25.0 mg/kg/injection, schedule: Q01DX Z (ip), vehicle: carboxymethylcellulose (CMC)) is reported as 107 % of control. The T/C (dose: 50.0 mg/kg/injection, schedule: Q01DX Z (ip), vehicle: carboxymethylcellulose (CMC)) was 119 % of control.

In the case of c1ccc(N(c2ccccc2)[Si](c2ccccc2)(c2ccccc2)c2ccccc2)cc1, the T/C (dose: 25.6 mg/kg/injection, schedule: Q04DX002 (ip), vehicle: saline with Tween-80) is reported as 93 % of control, the T/C (dose: 64.0 mg/kg/injection, schedule: Q04DX002 (ip), vehicle: saline with Tween-80) is reported as 93 % of control and the T/C (dose: 160.0 mg/kg/injection, schedule: Q04DX002 (ip), vehicle: saline with Tween-80) is reported as 97 % of control. The T/C [7] was 104 % of control.

c1ccc2c(c1)C(=NOc1nc3ccccc3c3ccccc13)c1ccccc1-2 was tested, and the T/C (dose: 100.0 mg/kg/injection, schedule: Q01DX001 (ip), vehicle: Klucel (hydroxypropylcellulose) (HPC)) was 96 % of control, the T/C [12] was 93 % of control and the T/C (dose: 200.0 mg/kg/injection, schedule: Q01DX001 (ip), vehicle: Klucel (hydroxypropylcellulose) (HPC)) was 91 % of control. The T/C [13] was 95 % of control, the T/C (dose: 400.0 mg/kg/injection, schedule: Q01DX001 (ip), vehicle: Klucel (hydroxypropylcellulose) (HPC)) was 86 % of control and the T/C [14] was 99 % of control.

With O=C(O)C1C2CCCCC2=C2CCCCC2C1C(=O)O (stereo not given) the T/C (dose: 100.0 mg/kg/injection, schedule: Q04DX002 (ip), vehicle: Klucel (hydroxypropylcellulose) (HPC)) was 90 % of control, the T/C [3] was 93 % of control and the T/C (dose: 200.0 mg/kg/injection, schedule: Q04DX002 (ip), vehicle: Klucel (hydroxypropylcellulose) (HPC)) was 98 % of control. The T/C [4] was 94 % of control, the T/C (dose: 400.0 mg/kg/injection, schedule: Q04DX002 (ip), vehicle: Klucel (hydroxypropylcellulose) (HPC)) was 93 % of control and the T/C [5] was 91 % of control.
